Data from patent publication US20110124574A1, “RESTORATION OF ESTROGEN RECEPTOR-(ALPHA) ACTIVITY” (priority 2008, published 2011).
Where no end group is shown, it is not given here. The star is where a group is joined. For = O=C*

B1: recombinant Wnt-5a: recombinant Wnt-5a protein (R&D Systems) (protein, UniProt P41221 62-380, looked up)
Protein Wnt-5a: IIGAQPLCSQLAGLSQGQKKLCHLYQDHMQYIGEGAKTGIKECQYQFRHRRWNCSTVDNTSVFGRVMQIGSRETAFTYAVSAAGVVNAMSRACREGELSTCGCSRAARPKDLPRDWLWGGCGDNIDYGYRFAKEFVDARERERIHAKGSYESARILMNLHNNEAGRRTVYNLADVACKCHGVSGSCSLKTCWLQLADFRKVGDALKEKYDSAAAMRLNSRGKLVQVNSRFNSPTTQDLVYIDPSPDYCVRNESTGSLGTQGRLCNKTSEGMDGCELMCCGRGYDQFKTVQTERCHCKFHWCCYVKCKKCTEIVDQFVCK

Assays:
ERα = ERα protein expression by Western blot in stimulated 4T1 cells; assay type: cell-based, mouse; settings: stimulation for 24 and 48 hours
Method: Breast cancer cells were grown in 6 well plates, and stimulated with recombinant Wnt-5a protein (rW5a), the Wnt-5a derived Foxy-5 peptide (F5), recombinant Wnt-3a protein (rW3a), or a formylated random hexapeptide (Rdm) for 24 or 48 h. Following treatment cells were lysed and subjected to SDS-PAGE, transferred to nitrocellulose membranes and blotted for ERα expression. A: MDA-MB-231 cells stimulated with recombinant Wnt-5a, Foxy-5, Wnt-3a, Rdm. B: MDA-MB-468 cells stimulated with recombinant Wnt-5a or Foxy-5. C: 4T1 cells stimulated with recombinant Wnt-5a or Foxy-5. Positive controls (Pos) were included in order to confirm the correct band size for ERα. Two different positive controls were used: T47D cell lysates known to express ERα and MDA-MB-231 cells transiently transfected with a full length ERα plasmid, resulting in extremely high ERα expression (top row, right panel, third row, right panel). […]
Cells were lysed in Triton lysis buffer (50 mM Tris (pH7.5), 1% Triton x-100, 140 mM NaCl, 0.5 mM EDTA, 0.5 MgCl2, 10 mM NaF) with the addition of fresh leupeptin (1 μg/ml), Pefabloc (2 mM), aprotinin (20 μg/ml) and Na3VO4 (4 mM). […] Scanning and densitometry was performed using a Bio-Rad (Hercules Calif.) GS-800 densitometer with Quantity One software. […]

ERα promoter = assay: Bisulfite genomic sequencing of the ERα promoter in MDA-MB-231 cells; assay type: cell-based, human; settings: 48 hours, rWnt-5a 0.6 μg/ml, Foxy-5 100 μM
Method: MDA-MB-231 cells were grown in normal media and either left untreated, or stimulated with rWnt-5a protein (rWnt-5a, 0.6 μg/ml)) or the Wnt-5a derived Foxy-5 peptide (F5, 100 μM), for 48 hours. MCF-7 cells were grown for the same amount of time, and were left untreated. DNA was extracted from each sample and subjected to bisulfite modification. Bisulfite treated DNA was subjected to bisulfite genomic sequencing (BGS) of the ERα promoter using nested PCR with primers for the ERα promoter region. PCR products were cloned and 10 random clones sequenced. Filled (black) circles represent methylation at a given cytosine, empty (white) circles represent either unmethyllated cytosine or cytosines demethylated following rWnt-5a or Foxy-5 treatment. The numbers represent the position of CpG dinculeotides relative to the transcription start site (+1). The TATA box is located between positions −17 and +13.
DNA was extracted from cells according to standard procedures. 1 μg of DNA was then bisulfite treated using the EpiTect Bisulfite Kit (Qiagen) and amplified via nested PCR with primers for the ERα promoter region. PCR products were cloned using the TOPO TA cloning kit (Invitrogen). 10 random clones were sequenced using an AB13730 DNA analyzer (Applied Biosystems).

| Molecule | ERα levels (ERα) | methylation of the ERα CpG island (ERα promoter) |
| --- | --- | --- |
| formyl-MDGCEL (For-MDGCEL; listed as Homo sapiens) [Foxy-5] | upregulated | demethylated |
| B1 | upregulated | demethylated |
